In patent publication US6696433B2, “Use of sex steroids function modulators to treat wounds and fibrotic disorders” (Renovo Limited, priority 1996, dated 2004):
Marks after values point to notes of the source that are not given here.

How the values were obtained:
Human dermal fibroblasts = assay: Fibroblast proliferation, [3H] thymidine incorporation; assay type: cell-based; settings: for proliferation of fibroblasts: doses 1 pM to 1 mM, 24 hrs, fibroblasts from young and aged subjects, compared to cyclodextrin controls
Method: (§1) Human dermal fibroblasts were explanted from the 4 mm punch biopsy specimens of normal skin. Fibroblasts used in the study were cultured at 37° C. in 95% air; 5% CO2 at 100% relative humidity, in phenol red-free DMEM (Gibco), 100 U/ml penicillin, […], 1 mM sodium pyruvate, 2 mM L-glutamine, non-essential amino acids and charcoal-stripped 10% FCS (Gibco, UK) (to remove endogenous steroids).
(§2) Cultured cells at passage 3-5 were seeded overnight in 24-well plates at a density of 2×10^5 cells per well in serum free media. The following morning oestrogen or progesterone (made soluble by the incorporation of the carrier cyclodextrin; Sigma, Poole), ranging from 1 pM to 1 mM doses, were added to the medium for 24 hrs. All samples were assessed in triplicate. The media was removed after the 24 hr incubation. 1 mg/ml of aprotinin, leupeptin and pepstatin A was then added to the media which was used immediately in a TGF-β assay (see below). Controls included cyclodextrin at the appropriate concentration, and serum-free medium alone.
The cells were then incubated with [^3H] thymidine in serum-free medium (0.5 μCi/well) to assess the effect of oestrogen or progesterone on fibroblast proliferation. After 24 hrs, the thymidine solution was aspirated and replaced by 10% TCA for 4 hrs at 4° C. The TCA was replaced by 250 μls 1M NaOH solution for 18 hrs. Two 100 μl aliquots from each well were measured for radioactivity in a scintillation counter. In parallel experiments, the effect of hormones/controls on protein synthesis was investigated by the addition of 20 μg/ml cycloheximde (to inhibit protein translation) for 15 mins prior to the 24 hr incubation period.

[1] = test system: 4 mm punch biopsy wounds of the upper inner arm; assay: Topical oestrogen patch clinical trial of wound healing in elderly men and women; assay type: in vivo, human; set-up: key to Collagen Quantities: +=minimal quantities; ++=less than normal skin; +++=similar to normal skin; ++++=greater than normal skin; settings: for Collagen Quantities: oestradiol patch, DAY 7; for % Rate of re-epithelialisation / Wound area: day 7 post-wounding; for scarring, microscopically and macroscopically (FIGS. 7 and 8): scored as in 2.1.4.2
Method: Approval for this study was given by the local Ethics Committee. Forty health-status defined volunteers split into four groups: (i) GROUP 3A comprised ten women with mean age 76.3 yr (Sd 5.6) who received oestrogen supplements (25 μg/24 hrs of oestradiol) (ii) GROUP 3B comprised ten women with mean age 72.5 yr (Sd 7.1) who received placebo instead of oestrogen. (iii) GROUP 3C comprised ten men with mean age 69.6 yr (Sd 3.6) who received oestrogen supplements (ii) GROUP 3D comprised ten men with mean age 71.8 yr (Sd 8.9) who received placebo instead of oestrogen. After informed consent subjects from each of Groups 3A, 3B, 3C and 3D underwent two 4 mm punch biopsies from the upper inner arm (a non sun-exposed site) following local infiltration with 1 ml 1% lignocaine. Each biopsy of normal skin was bisected and one-half embedded in Optimal Cutting Temperature compound (Miles Inc. Elkhart, Ind.), frozen over liquid nitrogen, and stored at −70° C., and one-half snap-frozen in liquid nitrogen and stored at −70° C. The area for biopsy was covered by a 2×3 cm patch (placebo Groups 3B and 3D or active oestradiol 3A and 3C) through which the biopsies were made. The patch was covered by a Multisorb dry gauze dressing (Smith & Nephew) and both were removed after 24 hrs. The active patches contained sufficient oestradiol such that the wound sites were exposed to 25 μg/24 hrs of oestradiol. Five subjects from Groups 3A, 3B, 3C and 3D underwent re-excision of the wounds at day 7 post-wounding, and the other five subjects from each group at day 84 post-wounding. The left upper inner arm was cleaned with isopropyl alcohol, elliptical excisions of the wounds were made following 1% lignocaine infiltration and two sutures were used to close the gap. Each wound was bisected and processed as described above (3.1.3). 7 μm paraffin-embedded sections were strained with H&E and Masson's Trichrome. The rate of re-epithelialisation (at day 7 post-wounding), and wound sizes as determined by planimetry, were determined with image analysis using an Olympus Vanox camera and PC image capture system. Collagen quantity within the wound was determined by two observers blinded to the identity of the specimen on the following scale +=minimal quantities; ++=less than normal skin; +++=similar to normal skin; ++++=greater than normal skin. The wound stiffness at day 80 was determined using the non-disruptive Dimensional Analysis System (Das). Previous studies have correlated wound breaking strength values (ultimate pressure at failure) to wound stiffness using this system. The system applies a multiaxial load (negative pressure) to the wound and measures the deformation due to the load of two reflective targets placed at the wound edges, using a high resolution camera and video processor. Pressure was applied to a maximum of 100 mmHg and then released, Stiffness was measured between 20 and 80 mmHg.

TGF-β1 mRNA = assay: Dermal fibroblast TGF-β1 mRNA levels by quantitative RT-PCR; assay type: cell-based, human
Method: as §1, §2
Quantitative RT-PCR was used to determine the steady-state levels of TGF-β1 mRNA in the acute wound and in 10^5 cells from the fibroblast in vitro studies (2.1.5) Cellular RNA was isolated from specimens using the method of Chomcynski and Sacchi (Anal, Biochem, 162 p156-159 (1987)). Purity of extraction was assessed using the A260/280 ratio spectrophotometrically, which in all cases was above 1.75. […] Quantitative RT-PCR was performed as described by Tarnuzzer et al. (Biotechniques 20 p670-674 (1996)) Briefly, the reverse transcriptase reaction was carried out using 8 decreasing dilutions of template with 1 μg of authentic cellular RNA. β-actin was used as a positive control. PCR reactions were carried out on the reverse transcription reaction. Electrophoresis was then carried out on a 2% agarose gel containing […] ethidium bromide at 100 v for 1 hr using an Electro 4 tank (Hybaid, Teddington, UK) and photographed using a dual intensity transilluminator (Genetic Research instrumentation, Dunmow (UK) with a Polaroid MP 4+ camera and 665 Polaroid Black and White film, Photographic images were captured using a PC Image Software system (Foster Finley, Newcastle, UK) on a 486 DX2 Dan computer (Dan, UK) and a CCD camera (Swift, UK). The band intensities were determined by image analysis using a Macintosh computer and NIH software programme. Band intensity values were normalised based on the molecular weights of the products. The log of the ratio of band intensities within each lane was plotted against the log of the copy number of template added per reaction. Quantities of target messages were determined where the ratio of template and target band intensities were equal to 1. Copy numbers were expressed per total RNA (for wound tissue) or expressed per cell (for in vitro studies). The latter were calculated by assuming 26 pg RNA/cell.

[2] = FEMALES (3A), patch 25 μg/24 hrs of oestradiol for 24 hrs
[3] = MALES (3C), patch 25 μg/24 hrs of oestradiol for 24 hrs
[4] = OLD person (2A or 2B) fibroblasts, mM dose
[5] = OLD person (2A or 2B) fibroblasts, nM dose
[6] = OLD person (2A or 2B) fibroblasts, pM dose
[7] = OLD person (2A or 2B) fibroblasts, μM dose
[8] = YOUNG person (2C) fibroblasts, mM dose
[9] = YOUNG person (2C) fibroblasts, nM dose
[10] = YOUNG person (2C) fibroblasts, pM dose
[11] = YOUNG person (2C) fibroblasts, μM dose

Compound	proliferation of fibroblasts (Human dermal fibroblasts)	scarring, microscopically and macroscopically (FIGS. 7 and 8) [1]	TGF-beta mRNA LEVELS (TGF-β1 mRNA; [4]) [copies/cell]	TGF-beta mRNA LEVELS (TGF-β1 mRNA; [5]) [copies/cell]	TGF-beta mRNA LEVELS (TGF-β1 mRNA; [6]) [copies/cell]	TGF-beta mRNA LEVELS (TGF-β1 mRNA; [7]) [copies/cell]	TGF-beta mRNA LEVELS (TGF-β1 mRNA; [8]) [copies/cell]	TGF-beta mRNA LEVELS (TGF-β1 mRNA; [9]) [copies/cell]	TGF-beta mRNA LEVELS (TGF-β1 mRNA; [10]) [copies/cell]	TGF-beta mRNA LEVELS (TGF-β1 mRNA; [11]) [copies/cell]	also measured
C[C@]12CC[C@@H]3c4ccc(O)cc4CC[C@H]3[C@@H]1CC[C@@H]2O [Oestrogen]	inhibited	inferior quality of wound	990 ± 325	1100 ± 370	1155 ± 215	1100 ± 235	1250 ± 188	1300 ± 272	1190 ± 300	1180 ± 130	Collagen Quantities ([1]; FEMALES (3A)): ++; % Rate of re-epithelialisation [1, 2]: 74.5 (10.5)* %; Wound area [1, 2]: 1204 (49)*; Collagen Quantities ([1]; MALES (3C)): ++; % Rate of re-epithelialisation [1, 3]: 62.5 (21.7) %; Wound area [1, 3]: 1173 (61)*; Wound area ([1]; oestrogen treatment, p<0.05): significantly reduced; Wound stiffness (Dimensional Analysis System) ([1]; day 80 post-wounding): not affected; rate of re-epithelialization ([1]; female (3A) and male subjects (3C) relative to placebo controls): accelerated; TGF-β1 mRNA levels, control versus treated fibroblasts (TGF-β1 mRNA; varying concentrations of oestrogen, fibroblasts from all females regardless of age): No significant differences
CC(=O)[C@H]1CC[C@H]2[C@@H]3CCC4=CC(=O)CC[C@]4(C)[C@H]3CC[C@]12C [Progesterone, progesterone]	inhibited	superior scaring	1300 ± 430	1000 ± 275	950 ± 210	1110 ± 290	1100 ± 310	1145 ± 206	1130 ± 254	1090 ± 280	degree of inhibition of fibroblast proliferation relative to oestrogen (Human dermal fibroblasts; at 1 mM, p<0.05): significantly greater degree than oestrogen
